Calls of active or inactive are those of the source. No rule for the calls is given here.

This series deals with CCRIS mutagenicity, Ames/micronucleus/aberration tests. The series is described as follows: CCRIS mutagenicity studies.
The mark [1] stands for this setting: Test System: AMES SALMONELLA TYPHIMURIUM, Strain/Indicator: TA100, Metabolic Activation: NONE, Method: STANDARD PLATE.

With `P`, the mutagenic call is, setting by setting: (Test System: AMES SALMONELLA TYPHIMURIUM, Strain/Indicator: TA98, Metabolic Activation: NONE, Method: GAS EXPOSURE) “inactive; negative”; (Test System: AMES SALMONELLA TYPHIMURIUM, Strain/Indicator: TA98, Metabolic Activation: RAT LIVER S-9, PHENOBARBITAL AND BETA-NAPHTHOFLAVONE, Method: GAS EXPOSURE) “inactive; negative”; (Test System: AMES SALMONELLA TYPHIMURIUM, Strain/Indicator: TA100, Metabolic Activation: NONE, Method: GAS EXPOSURE) “inactive; negative”; (Test System: AMES SALMONELLA TYPHIMURIUM, Strain/Indicator: TA100, Metabolic Activation: RAT LIVER S-9, PHENOBARBITAL AND BETA-NAPHTHOFLAVONE, Method: GAS EXPOSURE) “inactive; negative”; (Test System: AMES SALMONELLA TYPHIMURIUM, Strain/Indicator: TA1535, Metabolic Activation: NONE, Method: GAS EXPOSURE) “inactive; negative”; (Test System: AMES SALMONELLA TYPHIMURIUM, Strain/Indicator: TA1535, Metabolic Activation: RAT LIVER S-9, PHENOBARBITAL AND BETA-NAPHTHOFLAVONE, Method: GAS EXPOSURE) “inactive; negative”. Also, the mutagenic call (Test System: AMES SALMONELLA TYPHIMURIUM, Strain/Indicator: TA1537, Metabolic Activation: NONE, Method: GAS EXPOSURE) was “inactive; negative”; the mutagenic call (Test System: AMES SALMONELLA TYPHIMURIUM, Strain/Indicator: TA1537, Metabolic Activation: RAT LIVER S-9, PHENOBARBITAL AND BETA-NAPHTHOFLAVONE, Method: GAS EXPOSURE) was “inactive; negative”; the mutagenic call (Test System: E.COLI, Strain/Indicator: WP2UVRA, Metabolic Activation: NONE, Method: GAS EXPOSURE) was “inactive; negative”; the mutagenic call (Test System: E.COLI, Strain/Indicator: WP2UVRA, Metabolic Activation: RAT LIVER S-9, PHENOBARBITAL AND BETA-NAPHTHOFLAVONE, Method: GAS EXPOSURE) was “inactive; negative”.

As to `NC(CO)C(=O)NNCc1ccc(O)c(O)c1O` (centres undefined), the mutagenic call runs as follows: under setting [1], “active; positive”; (Test System: AMES SALMONELLA TYPHIMURIUM, Strain/Indicator: TA100, Metabolic Activation: RAT, LIVER, S-9, PHENOBARBITAL, Method: STANDARD PLATE) “active; positive”; (Test System: UDS RAT HEPATOCYTES, Strain/Indicator: THY INCORP, Metabolic Activation: NONE, Method: AUTORADIOGRAPHY) “inactive; negative”.

Take `CS(=O)(=O)Nc1ccc([N+](=O)[O-])cc1Oc1ccccc1`: for the setting “End Point: IN VIVO CHROMOSOMAL ABERRATIONS, Test System: BONE MARROW CELLS, Species: MOUSE, Strain/Sex: SWISS/MALE, FEMALE, Route: GAVAGE (TEST MATERIAL SOLVENT: WATER)”, the mutagenic call was “active; positive (structural changes)”.

On to `CN(C)c1ccc(N=Nc2ccc3ccccc3c2)cc1`, for which the mutagenic call is, setting by setting: (Test System: AMES SALMONELLA TYPHIMURIUM, Strain/Indicator: TA98, Metabolic Activation: HAMSTER, LIVER, S-9, AROCLOR 1254, Method: STANDARD PLATE) “active; positive”; (Test System: AMES SALMONELLA TYPHIMURIUM, Strain/Indicator: TA98, Metabolic Activation: HAMSTER, LIVER, S-9, Method: PREINCUBATION (PRIVAL METHOD)) “active; positive”; (Test System: AMES SALMONELLA TYPHIMURIUM, Strain/Indicator: TA98, Metabolic Activation: RAT, LIVER, S-9, AROCLOR 1254, HAMSTER, LIVER, S-9, AROCLOR 1254, Method: STANDARD PLATE) “active; positive”; (Test System: AMES SALMONELLA TYPHIMURIUM, Strain/Indicator: TA100, Metabolic Activation: HAMSTER, LIVER, S-9, Method: PREINCUBATION (PRIVAL METHOD)) “active; positive”; (Test System: AMES SALMONELLA TYPHIMURIUM, Strain/Indicator: TA1538, Metabolic Activation: RAT, LIVER, S-9, AROCLOR 1254, HAMSTER, LIVER, S-9, AROCLOR 1254, Method: STANDARD PLATE) “active; positive”; (Test System: MOUSE LYMPHOMA, Strain/Indicator: L5178Y (TK+/TK-), Metabolic Activation: RAT, LIVER, S-9, AROCLOR 1254, Method: SUSPENSION/PLATE) “active; positive. reevaluation of results: positive”. Further, under “Test System: Mouse lymphoma, Strain/Indicator: L5178Y (tk+/tk-), Metabolic Activation: None, Method: Suspension/plate”, the mutagenic call is “inactive; negative”.

On to `CCN(CC)c1cc(NC(C)=O)c(N=Nc2c(Br)cc([N+](=O)[O-])cc2[N+](=O)[O-])cc1OC`, for which the mutagenic call (Test System: AMES SALMONELLA TYPHIMURIUM, Strain/Indicator: TA98, Metabolic Activation: NONE, Method: STANDARD PLATE) is “active; positive”; the mutagenic call (Test System: AMES SALMONELLA TYPHIMURIUM, Strain/Indicator: TA98, Metabolic Activation: RAT, LIVER, S-9, AROCLOR 1254, Method: STANDARD PLATE) was “active; positive”; the mutagenic call (Test System: AMES SALMONELLA TYPHIMURIUM, Strain/Indicator: TA98DNP6, Metabolic Activation: NONE, Method: STANDARD PLATE) was “inactive; negative”; the mutagenic call (Test System: AMES SALMONELLA TYPHIMURIUM, Strain/Indicator: TA98DNP6, Metabolic Activation: RAT, LIVER, S-9, AROCLOR 1254, Method: STANDARD PLATE) was “active; positive”; the mutagenic call (Test System: AMES SALMONELLA TYPHIMURIUM, Strain/Indicator: TA98NR, Metabolic Activation: NONE, Method: STANDARD PLATE) was “inactive; negative”; the mutagenic call (Test System: AMES SALMONELLA TYPHIMURIUM, Strain/Indicator: TA98NR, Metabolic Activation: RAT, LIVER, S-9, AROCLOR 1254, Method: STANDARD PLATE) is “active; positive”. For the same compound, the mutagenic call was “active; positive” under setting [1]; “active; positive” (Test System: AMES SALMONELLA TYPHIMURIUM, Strain/Indicator: TA100, Metabolic Activation: RAT, LIVER, S-9, AROCLOR 1254, Method: STANDARD PLATE); “inactive; negative” (Test System: AMES SALMONELLA TYPHIMURIUM, Strain/Indicator: TA1535, Metabolic Activation: NONE, Method: STANDARD PLATE); “inactive; negative” (Test System: AMES SALMONELLA TYPHIMURIUM, Strain/Indicator: TA1535, Metabolic Activation: RAT, LIVER, S-9, AROCLOR 1254, Method: STANDARD PLATE); “active; positive” (Test System: AMES SALMONELLA TYPHIMURIUM, Strain/Indicator: TA1537, Metabolic Activation: NONE, Method: STANDARD PLATE); “active; positive” (Test System: AMES SALMONELLA TYPHIMURIUM, Strain/Indicator: TA1537, Metabolic Activation: RAT, LIVER, S-9, AROCLOR 1254, Method: STANDARD PLATE). In addition, the mutagenic call runs as follows: (Test System: AMES SALMONELLA TYPHIMURIUM, Strain/Indicator: TA1538, Metabolic Activation: NONE, Method: STANDARD PLATE) “active; positive”; (Test System: AMES SALMONELLA TYPHIMURIUM, Strain/Indicator: TA1538, Metabolic Activation: RAT, LIVER, S-9, AROCLOR 1254, Method: STANDARD PLATE) “active; positive”; (Test System: AMES SALMONELLA TYPHIMURIUM, Strain/Indicator: YG1021, Metabolic Activation: NONE, Method: STANDARD PLATE) “active; positive”; (Test System: AMES SALMONELLA TYPHIMURIUM, Strain/Indicator: YG1021, Metabolic Activation: RAT, LIVER, S-9, AROCLOR 1254, Method: STANDARD PLATE) “active; positive”; (Test System: AMES SALMONELLA TYPHIMURIUM, Strain/Indicator: YG1024, Metabolic Activation: NONE, Method: STANDARD PLATE) “active; positive”; (Test System: AMES SALMONELLA TYPHIMURIUM, Strain/Indicator: YG1024, Metabolic Activation: RAT, LIVER, S-9, AROCLOR 1254, Method: STANDARD PLATE) “active; positive”. Further, the mutagenic call (Test System: AMES SALMONELLA TYPHIMURIUM, Strain/Indicator: YG1041, Metabolic Activation: NONE, Method: STANDARD PLATE) was “active; positive” and the mutagenic call (Test System: AMES SALMONELLA TYPHIMURIUM, Strain/Indicator: YG1041, Metabolic Activation: RAT, LIVER, S-9, AROCLOR 1254, Method: STANDARD PLATE) was “active; positive”.

In the case of `O=[N+]([O-])c1ccc2ccc3cc4c(c5ccc1c2c35)C=C[C@H](O)[C@H]4O`, the mutagenic call runs as follows: (Test System: AMES SALMONELLA TYPHIMURIUM, Strain/Indicator: TA98(1,8-DNP6), Metabolic Activation: NONE) “active; positive”; (Test System: AMES SALMONELLA TYPHIMURIUM, Strain/Indicator: TA98(1,8-DNP6), Metabolic Activation: RAT, LIVER, S-9, AROCLOR 1254) “active; positive”; (Test System: AMES SALMONELLA TYPHIMURIUM, Strain/Indicator: TA98(NR), Metabolic Activation: NONE) “active; positive”; (Test System: AMES SALMONELLA TYPHIMURIUM, Strain/Indicator: TA98(NR), Metabolic Activation: RAT, LIVER, S-9, AROCLOR 1254) “active; positive”; (Test System: AMES SALMONELLA TYPHIMURIUM, Strain/Indicator: TA98, Metabolic Activation: NONE) “active; positive”; (Test System: AMES SALMONELLA TYPHIMURIUM, Strain/Indicator: TA98, Metabolic Activation: RAT, LIVER, S-9, AROCLOR 1254) “active; positive”. Moreover, the mutagenic call (Test System: CHINESE HAMSTER OVARY, Strain/Indicator: CHO-K1-BH4 (HGPRT), Metabolic Activation: NONE) was “active; positive” and the mutagenic call (Test System: CHINESE HAMSTER OVARY, Strain/Indicator: CHO-K1-BH4 (HGPRT), Metabolic Activation: RAT, LIVER, S-9, 3-METHYLCHOLANTHRENE) was “active; positive”.

The values are drawn from PubChem BioAssay AID1259407 (Chemical Carcinogenesis Research Information System (CCRIS), 2018).
